Laboratory results from patent US8192962B2, “Processes for detecting toxic substances” (Daikin Industries, Ltd., priority 2001, dated 2012).

Test system: Stress protein genes
Assay: DNA chip mRNA expression in yeast, stress protein genes (Table 6)
Assay type: cell-based, Saccharomyces cerevisiae S288C
Experimental: Yeast (Saccharomyces cerevisiae S288C (α SUC2mal mel gap2 CUP1)) were incubated at 25° C. on YPD medium (yeast extract 1%, polypepton 2%, glucose 2%). One of toxic chemical substances was added to the cells at logarithmic growth phase, and the cells were further incubated for two hours. Cells were cultured without any chemical substance in the same condition, and were used as control. Concentrations of the chemical substances were defined to inhibit the growth of the yeast but not lead to death.
After completion of the incubation, the culture was centrifuged to collect the cells. To the cells, sodium acetate buffer (50 mM sodium acetate, 10 mM EDTA, 1% SDS) was added, and the mixture was shaken at 65° C. for five minutes, followed by returning to room temperature, and obtaining the supernatant, of which the procedures were repeated two times. To the supernatant, ½ amount of a solution of phenol/chloroform was added, and the mixture was centrifuged to give a supernatant, which was added with an equal amount of chloroform, and the mixture was centrifuged to give a supernatant. To the supernatant, an equal amount of isopropanol containing 0.3 M sodium acetate was added, and the mixture was allowed to stand at room temperature for 30 minutes, after which the mixture was centrifuged to give a sediment of the whole RNAs. Seventy % ethanol was added to the sediment, and the mixture was again centrifuged to give a sediment, which was then dried and dissolved in water. mRNA was isolated from the whole RNAs as followings. In view of the fact that a poly A chain is attached to the 3′ terminus of mRNA, a polynucleotide having a poly T structure which was immobilized on the surface of latex beads was used to trap the mRNA, and then the mRNA was washed and eluted with spine column (Oligotex-dT30<Super>mRNA Purification Kit, Takara). Reverse transcription of the mRNA was conducted with a reverse transcriptase (Super Script II Reverse Transcriptase; catalogue No. 18064-014, GibcoBRL) using fluorescence-labeled nucleotides to give cDNAs that were introduced with Cy3-dUTP or Cy5-dUTP during the reverse transcription.
The labeled cDNAs were dissolved in TE buffer (10mM Tris-HCl/1 mM EDTA, pH8.0), and the solution was dropped on the DNA chip containing the whole genes of yeast (DNA Chip Research Inc. Japan) so that the cDNAs were hybridized on the DNA chip at 65° C. for over 12 hours. The fluoresces intensity of the DNA chip was read with a scanner, and the ratio relative to the fluorescence intensity resulting from the absence of chemical substance was estimated as the following, which is shown in Tables 1 to 9: […]

Compound: CCCCCCCCCCCCc1ccc(S(=O)(=O)[O-])cc1.[Na+] [(17), sodium dodecylbenzosulfonate]
- The level of expressed mRNA in the presence of chemical substance/The level of expressed mRNA in the absence of chemical substance (yeast gene YIL033C): 1.0
- The level of expressed mRNA in the presence of chemical substance/The level of expressed mRNA in the absence of chemical substance (yeast gene YIR037W): 1.7
- The level of expressed mRNA in the presence of chemical substance/The level of expressed mRNA in the absence of chemical substance (yeast gene YIR038C): 2.8
- The level of expressed mRNA in the presence of chemical substance/The level of expressed mRNA in the absence of chemical substance (yeast gene YJL128C): 1.0
- The level of expressed mRNA in the presence of chemical substance/The level of expressed mRNA in the absence of chemical substance (yeast gene YJL158C): 1.4
- The level of expressed mRNA in the presence of chemical substance/The level of expressed mRNA in the absence of chemical substance (yeast gene YJL159W): 1.4
- The level of expressed mRNA in the presence of chemical substance/The level of expressed mRNA in the absence of chemical substance (yeast gene YJL165C): 1.3
- The level of expressed mRNA in the presence of chemical substance/The level of expressed mRNA in the absence of chemical substance (yeast gene YJR045C): 0.7
- The level of expressed mRNA in the presence of chemical substance/The level of expressed mRNA in the absence of chemical substance (yeast gene YJR090C): 1.1
- The level of expressed mRNA in the presence of chemical substance/The level of expressed mRNA in the absence of chemical substance (yeast gene YKL161C): 1.4
- The level of expressed mRNA in the presence of chemical substance/The level of expressed mRNA in the absence of chemical substance (yeast gene YKL163W): 0.8
- The level of expressed mRNA in the presence of chemical substance/The level of expressed mRNA in the absence of chemical substance (yeast gene YKL164C): 0.8
- The level of expressed mRNA in the presence of chemical substance/The level of expressed mRNA in the absence of chemical substance (yeast gene YKL210W): 0.7
- The level of expressed mRNA in the presence of chemical substance/The level of expressed mRNA in the absence of chemical substance (yeast gene YKR053C): 2.8
- The level of expressed mRNA in the presence of chemical substance/The level of expressed mRNA in the absence of chemical substance (yeast gene YLL024C): 0.5
- The level of expressed mRNA in the presence of chemical substance/The level of expressed mRNA in the absence of chemical substance (yeast gene YLL026W): 1.7
- The level of expressed mRNA in the presence of chemical substance/The level of expressed mRNA in the absence of chemical substance (yeast gene YLL039C): 1.6
- The level of expressed mRNA in the presence of chemical substance/The level of expressed mRNA in the absence of chemical substance (yeast gene YLL060C): 1.9
- The level of expressed mRNA in the presence of chemical substance/The level of expressed mRNA in the absence of chemical substance (yeast gene YLR006C): 1.6
- The level of expressed mRNA in the presence of chemical substance/The level of expressed mRNA in the absence of chemical substance (yeast gene YLR109W): 1.1
- The level of expressed mRNA in the presence of chemical substance/The level of expressed mRNA in the absence of chemical substance (yeast gene YLR259C): 0.8
- The level of expressed mRNA in the presence of chemical substance/The level of expressed mRNA in the absence of chemical substance (yeast gene YML007W): 1.0
- The level of expressed mRNA in the presence of chemical substance/The level of expressed mRNA in the absence of chemical substance (yeast gene YML070W): 1.2
- The level of expressed mRNA in the presence of chemical substance/The level of expressed mRNA in the absence of chemical substance (yeast gene YMR021C): 3.3
- The level of expressed mRNA in the presence of chemical substance/The level of expressed mRNA in the absence of chemical substance (yeast gene YMR173W): 1.9
- The level of expressed mRNA in the presence of chemical substance/The level of expressed mRNA in the absence of chemical substance (yeast gene YMR186W): 0.7
- The level of expressed mRNA in the presence of chemical substance/The level of expressed mRNA in the absence of chemical substance (yeast gene YNL064C): 0.7
- The level of expressed mRNA in the presence of chemical substance/The level of expressed mRNA in the absence of chemical substance (yeast gene YNL160W): 1.0
- The level of expressed mRNA in the presence of chemical substance/The level of expressed mRNA in the absence of chemical substance (yeast gene YNL241C): 1.0
- The level of expressed mRNA in the presence of chemical substance/The level of expressed mRNA in the absence of chemical substance (yeast gene YNR076W): 1.5
- The level of expressed mRNA in the presence of chemical substance/The level of expressed mRNA in the absence of chemical substance (yeast gene YOL064C): 1.2
- The level of expressed mRNA in the presence of chemical substance/The level of expressed mRNA in the absence of chemical substance (yeast gene YOL161C): 1.1
- The level of expressed mRNA in the presence of chemical substance/The level of expressed mRNA in the absence of chemical substance (yeast gene YOR008C): 0.8
- The level of expressed mRNA in the presence of chemical substance/The level of expressed mRNA in the absence of chemical substance (yeast gene YOR009W): 0.9
- The level of expressed mRNA in the presence of chemical substance/The level of expressed mRNA in the absence of chemical substance (yeast gene YOR010C): 1.4
- The level of expressed mRNA in the presence of chemical substance/The level of expressed mRNA in the absence of chemical substance (yeast gene YOR027W): 0.9
- The level of expressed mRNA in the presence of chemical substance/The level of expressed mRNA in the absence of chemical substance (yeast gene YOR208W): 1.6
- The level of expressed mRNA in the presence of chemical substance/The level of expressed mRNA in the absence of chemical substance (yeast gene YPL059W): 1.8
- The level of expressed mRNA in the presence of chemical substance/The level of expressed mRNA in the absence of chemical substance (yeast gene YPL106C): 0.5
- The level of expressed mRNA in the presence of chemical substance/The level of expressed mRNA in the absence of chemical substance (yeast gene YPL140C): 0.9
- The level of expressed mRNA in the presence of chemical substance/The level of expressed mRNA in the absence of chemical substance (yeast gene YPL194W): 1.0
- The level of expressed mRNA in the presence of chemical substance/The level of expressed mRNA in the absence of chemical substance (yeast gene YPL223C): 1.0
- The level of expressed mRNA in the presence of chemical substance/The level of expressed mRNA in the absence of chemical substance (yeast gene YPL240C): 0.8
- The level of expressed mRNA in the presence of chemical substance/The level of expressed mRNA in the absence of chemical substance (yeast gene YPR005C): 1.0
- The level of expressed mRNA in the presence of chemical substance/The level of expressed mRNA in the absence of chemical substance (yeast gene YPR026W): 0.9
